# Experimental data taken from patent US4749703A, “Calcium antagonist piperazine derivatives, and compositions therefor” (Dainippon Pharmaceutical Co., Ltd., priority 1984, dated 1988).
# Counter-ions that a name gives are not always drawn.
# Legend:
# [1] = tested on: vasopressin-induced ST depression; assay: Preventive effect on vasopressin-induced ST depression (experimental model of angina pectoris); assay type: in vivo, Male Donryu strain rats; design: key to Preventive effect on ST depression, 7 hours / Preventive effect on ST depression, 1 hour / Preventive effect on ST depression, 5 hours / Preventive effect on ST depression, 3 hours: +: Significantly different from vehicle control (P < 0.05); -: No significant difference; details: for Preventive effect on ST depression, 1 hour: 1 hour following administration; for Preventive effect on ST depression, 3 hours: 3 hours following administration; for Preventive effect on ST depression, 5 hours: 5 hours following administration
# Experimental: (1) Preventive effect on vasopressin-induced ST depression (effect in experimental model of angina pectoris)
# The test was carried out according to the method of Hatano et al. [cf. Pharmacometrics, 19, 311-317 (1980)].
# Male Donryu strain rats, weighing 130-180 g, were anesthetized with 60 mg/kg (i.p.) of sodium pentobarbital. Lead II electrocardiogram was recorded. The ST depression produced with 0.2 IU/kg (i.v.) of vasopressin was recorded at intervals of a given period for 5 minutes after the administration of vasopressin. The test compound, suspended in 0.5% aqueous tragacanth solution, was administered orally 1, 3, 5 and 7 hours before the administration of vasopressin. The amplitude of ST depression was measured by means of the computer, and the data were analyzed statistically by two-dimensional analysis between the control group and the treated group to evaluate the effect of the test compound. Each group of 5 rats was used for each dose of the test compound.
# [2] = tested on: spontaneously hypertensive rats (SHR); assay: Antihypertensive activity in spontaneously hypertensive rats (SHR); assay type: in vivo, male SHR (Okamoto and Aoki strain) rats; details: for Peak time (time of maximum hypotensive effect): p.o.
# Experimental: The animals used were male SHR [Okamoto and Aoki strain; cf. Jap. Circul. […] Proc. Soc. […] The other end of the cannula was exposed through the skin on the back of the neck and fixed. After 1 to 4 days, the aortic cannula was connected to a pressure transducer (produced by Nihon Koden Co., Ltd., Japan; Model MP-4T), and conscious blood pressure was measured by direct method. On the day of the experiment, the blood pressure was measured for one hour prior to dosing. The test compound, suspended in 0.5% aqueous tragacanth solution, was administered orally at a volume of 3.0 ml/kg and the blood pressure was measured continuously for 5 hours.
# The changes of blood pressure are expressed by the mean pressure calculated from the values of systolic and diastolic pressure.
# [3] = tested on: methacholine-induced ST elevation; assay: Preventive effect on methacholine-induced ST elevation (experimental model of variant angina); assay type: in vivo, Male SD strain rats; details: i.v.; for ST elevation, administn. of M (8 μg) after administn. of test compd. (at peak time): ± S.E.
# Experimental: (2) Preventive effect on methacholine-induced ST elevation (effect in experimental model of variant angina)
# The test was carried out according to the method of Sakai et al. [cf. J. Pharmacol. Methods, 5, 325-336 (1981)].
# Male SD strain rats, weighing about 500 g, were anesthetized with 60 mg/kg (i.p.) of sodium pentobarbital. Lead II electrocardiogram was recorded. The ST elevation was produced with 8.0 μg of metacholine given into the coronary […] through the cannula inserted from the right carotid artery. The test compound, dissolved in 5% ethanol-physiological saline solution, was administered intravenously. The amplitude of ST elevation was measured by means of the computer 0.5, 5 and 10 minutes after the administration of the test compound and afterward at intervals of 10-minute. The effect of the test compound was evaluated by comparing the amplitude of ST elevation after administration of the test compound with that before the administration. Each group of 5 rats was used for each dose of the test compound.
# The abbreviation M in the table represents metacholine.
compound,measurement,setting,value
"COc1ccc([C@@H]2Sc3ccccc3N(CCN(C)C)C(=O)[C@@H]2OC(C)=O)cc1 [Diltiazem hydrochloride, reference compound]","Preventive effect on ST depression, 1 hour",[1]; 3 mg/kg p.o.,-
same,"Preventive effect on ST depression, 3 hours",[1]; 3 mg/kg p.o.,-
same,"Preventive effect on ST depression, 1 hour",[1]; 10 mg/kg p.o.,+
same,"Preventive effect on ST depression, 3 hours",[1]; 10 mg/kg p.o.,+
same,"Preventive effect on ST depression, 5 hours",[1]; 10 mg/kg p.o.,-
same,"Preventive effect on ST depression, 1 hour",[1]; 30 mg/kg p.o.,+
same,"Preventive effect on ST depression, 5 hours",[1]; 30 mg/kg p.o.,+
same,"Preventive effect on ST depression, 7 hours","[1]; 30 mg/kg p.o., 7 hours following administration",-
same,Peak time (time of maximum hypotensive effect),[2]; 30 mg/kg,20 min
same,Peak time (time of maximum hypotensive effect),[2]; 50 mg/kg,20 min
same,decrease compared with the initial blood pressure at 5 hours after dosing,[2]; oral,3%
same,reduction of blood pressure (in words),"[2]; oral, 30 mg/kg",did not reduce significantly blood pressures
same,maximum effect (decrease compared with the initial blood pressure),"[2]; oral, 50 mg/kg",13%
same,time of maximum effect,"[2]; oral, 50 mg/kg",20 min
same,peak time (preventive effect on ST elevation),[3]; 0.1 mg/kg,10 min
same,"ST elevation, administn. of M (8 μg) after administn. of test compd. (at peak time)","[3]; 0.1 mg/kg, * P < 0.05",+0.15 ± 0.03 ΔmV
same,peak time (preventive effect on ST elevation),[3]; 0.3 mg/kg,10 min
same,"ST elevation, administn. of M (8 μg) after administn. of test compd. (at peak time)","[3]; 0.3 mg/kg, * P < 0.05, ** P < 0.01",+0.06 ± 0.02 ΔmV
same,peak time (preventive effect on ST elevation),[3]; 1.0 mg/kg,5 min
same,"ST elevation, administn. of M (8 μg) after administn. of test compd. (at peak time)","[3]; 1.0 mg/kg, ** P < 0.01",+0.09 ± 0.02 ΔmV
"O=C(CCCN1CCN(c2ccc(F)cc2)CC1)NC1c2ccccc2CSc2ccccc21 (stereo not shown) [Example 1(1), 11-[4-[4-(4-fluorophenyl)-1-piperazinyl]butyrylamino]-6,11-dihydrodibenzo[b,e]thiepin]",duration of antihypertensive activity (in words),[2]; compared with commercially available calcium antagonists,longer duration of antihypertensive activity than that of the commercially available calcium antagonists
"O=C(CCCN1CCN(c2ccc(F)cc2)CC1)NC1c2ccccc2CSc2cc(F)ccc21 (stereo not shown) [Example 42, 3-fluoro-11-[4[4-(4-fluorophenyl)-1-piperazinyl]butyrylamino]-6,11-dihydrodibenzo[b,e]thiepin]",Peak time (time of maximum hypotensive effect),[2]; 30 mg/kg,240 min
same,maximum hypotensive effect (decrease compared with the initial blood pressure),"[2]; oral, 30 mg/kg",12-14%
same,time of maximum hypotensive effect,"[2]; oral, 30 mg/kg",4 to 5 h
"O=C(CCCN1CCN(c2ccc(F)cc2)CC1)NC1c2ccccc2CS(=O)(=O)c2ccccc21 (stereo not shown) [Example 138, 11-[4-[4-(4-fluorophenyl)-1-piperazinyl]butyrylamino]-6,11-dihydrodibenzo[b,e]thiepin-5,5-dioxide]",Peak time (time of maximum hypotensive effect),[2]; 30 mg/kg,300 min
same,maximum hypotensive effect (decrease compared with the initial blood pressure),"[2]; oral, 30 mg/kg",12-14%
same,time of maximum hypotensive effect,"[2]; oral, 30 mg/kg",4 to 5 h
"COC(=O)C1=C(C)NC(C)=C(C(=O)OC)C1c1ccccc1[N+](=O)[O-] [Nifedipine, reference compound]","Preventive effect on ST depression, 1 hour",[1]; 0.01 mg/kg p.o.,-
same,"Preventive effect on ST depression, 3 hours",[1]; 0.01 mg/kg p.o.,-
same,"Preventive effect on ST depression, 1 hour",[1]; 0.1 mg/kg p.o.,+
same,"Preventive effect on ST depression, 3 hours",[1]; 0.1 mg/kg p.o.,-
same,"Preventive effect on ST depression, 5 hours",[1]; 0.1 mg/kg p.o.,-
same,Peak time (time of maximum hypotensive effect),[2]; 3 mg/kg,30 min
same,decrease compared with the initial blood pressure at 5 hours after dosing,[2]; oral,7%
same,maximum hypotensive effect (decrease compared with the initial blood pressure),"[2]; oral, 3 mg/kg",17%
same,time of maximum hypotensive effect,"[2]; oral, 3 mg/kg",0.5 h
same,peak time (preventive effect on ST elevation),[3]; 0.03 mg/kg,10 min
same,"ST elevation, administn. of M (8 μg) after administn. of test compd. (at peak time)",[3]; 0.03 mg/kg,+0.17 ± 0.02 ΔmV
same,peak time (preventive effect on ST elevation),[3]; 0.1 mg/kg,20 min
same,"ST elevation, administn. of M (8 μg) after administn. of test compd. (at peak time)","[3]; 0.1 mg/kg, * P < 0.05",+0.08 ± 0.02 ΔmV
